Source: ChEMBL document CHEMBL1136472, “3-iodo-4-phenoxypyridinones (IOPY's), a new family of highly potent non-nucleoside inhibitors of HIV-1 reverse transcriptase” (Bioorg Med Chem Lett, 2003)

Columns and labels:
MT4 [1] = experiment: Anti-HIV-1 activity against […] strain was determined in MT-4 cells by the MTT method; format: functional, cell-based; conditions: Homo sapiens
MT4 [2] = experiment: Anti-HIV-1 activity against K103N+[…] strain was determined in MT-4 cells by the MTT method; format: functional, cell-based; conditions: Homo sapiens
MT4 [3] = experiment: Anti-HIV-1 activity against K103N+Y181C strain was determined in MT-4 cells by the MTT method; format: functional, cell-based; conditions: Homo sapiens
MT4 [4] = experiment: Anti-HIV-1 activity against K103N strain in MT-4 cells by the MTT method; format: functional, cell-based; conditions: Homo sapiens
MT4 [5] = experiment: Anti-HIV-1 activity against LAI strain in MT-4 cells by the MTT method; format: functional, cell-based; conditions: Homo sapiens
MT4 [6] = experiment: Anti-HIV-1 activity against Y181C strain, in MT-4 cells by the MTT method; format: functional, cell-based; conditions: Homo sapiens
[7] = Selectivity index is the ratio of 50% cytotoxic concentration to IC50 against LAI strain in MT-4 cells by the MTT method was determined; format: functional, MT4
MT4 [8] = experiment: Anti-HIV-1 activity against Y188L strain was determined in MT-4 cells by the MTT method; format: functional, cell-based; conditions: Homo sapiens
MT4 [9] = experiment: Anti-HIV-1 activity against LAI strain in MT-4 cells.; format: functional, cell-based; conditions: Homo sapiens

Compound | IC50 (MT4 [1]) | IC50 (MT4 [2]) | IC50 (MT4 [3]) | IC50 (MT4 [4]) | IC50 (MT4 [5]) | IC50 (MT4 [6]) | SI [7] | IC50 (MT4 [8]) | IC50 (MT4 [9])
CC(C)Nc1cccnc1N1CCN(C(=O)c2cc3cc(NS(C)(=O)=O)ccc3[nH]2)CC1 [DELAVIRDINE] | 1900 nM | > 10000 nM | > 10000 nM |  |  |  |  |  | 
CCc1c(C)nc(O)c(I)c1Oc1cccc(C)c1 |  |  |  | 32 nM | 1.6 nM | 51 nM | 19900 |  | 
CCOCn1c(Cc2ccccc2)c(C(C)C)c(=O)[nH]c1=O [EMIVIRINE] |  |  |  | 32 nM | 8 nM | 100 nM | 12500 |  | 
CCc1c(C)[nH]c(=O)c(N(C)C)c1Cc1cc(C)cc(C)c1 | 50 nM |  | 800 nM | 32 nM | 8 nM | 100 nM | 12500 | 300 nM | 
CCc1c(C)nc(O)c(I)c1Oc1ccccc1 |  |  |  | 40 nM | 1.6 nM | 316 nM | 63000 |  | 
CCc1c(C)[nH]c(=O)c(I)c1Oc1cc(C)cc(C)c1 | 6 nM | 20 nM | 40 nM | 3 nM | 1.3 nM | 20 nM | 9000 | 45 nM | 
O=c1[nH]c(=O)n(COCCO)c(Sc2ccccc2)c1I |  |  |  |  |  |  |  |  | 3600 nM
O=C1Nc2ccc(Cl)cc2[C@@](C#CC2CC2)(C(F)(F)F)O1 [EFAVIRENZ] | 2 nM | > 10000 nM | 40 nM | 40 nM | 1 nM | 40 nM |  | 200 nM | 
CCc1c(C)nc(O)c([N+](=O)[O-])c1Oc1cc(C)cc(C)c1 |  |  |  | 100 nM | 4 nM | 158 nM | 2500 |  | 
CCc1c(C)nc(O)c(N(C)C)c1Oc1cc(C)cc(C)c1 |  |  |  | 50 nM | 4 nM | 158 nM | 25000 |  | 
CCc1c(Oc2cc(C)cc(C)c2)cc(=O)[nH]c1C |  |  |  |  | 500 nM |  | 200 |  | 
CCOCn1c(Cc2cc(C)cc(C)c2)c(C(C)C)c(=O)[nH]c1=O |  |  |  | 40 nM | 1 nM | 180 nM | 52000 |  | 
